This note sets out measurements from patent US9365534B2, “Arylated camphenes, processes for their preparation and uses thereof” (Yissum Research Development Company of the Hebrew …, priority 2009, dated 2016).

The structures appear in SMILES notation.

Assay [1] concerns the target T1, human CB2 receptor (Homo sapiens (Human), UniProt P34972). As to the kind of experiment: Membrane competition binding assay with [3H]-CP 55,940, CHO-CB2 membranes. The text has this: (§1) The cDNA clones for human HA-tagged CB1 and CB2 receptors were obtained from the Missouri S&T cDNA Resource Center (www.cdna.org) in cloning vector pcDNA3.1+. The vector containing the human CB2 receptor was transfected directly into CHO-KI cells obtained from ATCC. The HA-tagged human CB1 receptor sequence was subcloned into the pef4-V5-HisA vector with Kpn1 and Pme1 restriction enzymes and subsequently transfected into CHO-K1 cells. Cells were clonally isolated by limited dilution and screened by immunocytochemistry for expression of the HA tag.
(§2) Cells were maintained in DMEM/F12 media supplemented with 10% fetal bovine serum (FBS), 100 units/ml penicillin and 100 μg/ml streptomycin and 2 mM L-glutamine. Transfected cell lines were maintained with additional 150 ug/ml zeocin for pEF HA-CB1 transfected cells and 500 ug/ml G-418 for pcDNA HA-CB2 transfected cells (all reagents obtained from Invitrogen).
Cells were grown to confluence and harvested in ice cold phosphate buffered saline with 5 mM EDTA. Cells were spun at 200×g for 10 min and frozen at −80° C. until required. Cell pellets were thawed with cold 0.32 M sucrose and homogenised with a glass homogeniser. The homogenate was spun at 1000×g for 10 min at 4° C. and the supernatant spun in a Sorvall ultracentrifuge for 30 min at 100,000×g. The pellet was then washed in ice cold water and re-spun twice more. The final pellet was resuspended in 50 mM Tris pH 7.5, 0.5 mM EDTA. Protein concentration was determined using the Dc protein assay kit (BioRad, Hercules, Calif., USA).
Membranes (5-10 μg) were incubated with radioligand and a range of concentrations of test compounds in binding buffer (50 mM Tris pH 7.4, 5 mM MgCl2, 1 mM EDTA) with 0.5% (w/v) bovine serum albumin (BSA) (ICP Bio, New Zealand), at 30° C. for 60 min. Stock solutions of putative cannabinoid ligands were prepared in dimethyl sulfoxide to a concentration of 10 mM. Six different final concentrations of compounds were used ranging from 50 μM to 0.1 nM. […] Assays were terminated by addition of 2 ml ice cold binding buffer and filtration through GF/C filters (Whatman) pre-soaked in cold binding buffer, followed by two washes in the same buffer.
Radioactivity was determined by incubation of filters with Irgasafe scintillation fluid (PerkinElmer) and scintillation counting in a Wallac Trilux using Microbeta Trilux software. Data was analysed using the Prism 4.02 programme (GraphPad Software, San Deigo, Calif., USA).
All data was analyzed using Prism 4.02. For binding data the Ki was determined from IC50 values derived from competition binding data fitted with one site competition non-linear regression analysis by Prism 4.02 using the Kd values reported above.

The target of the next assay is human CB1 receptor (Homo sapiens (Human), UniProt P21554). As to the kind of experiment: cell-based. The conditions noted are these: whole cells expressing CB1, 50 μM forskolin; read-out: cAMP Assay CB1 Receptor IC50.
human CB1 receptor, sequence (P21554 whole entry): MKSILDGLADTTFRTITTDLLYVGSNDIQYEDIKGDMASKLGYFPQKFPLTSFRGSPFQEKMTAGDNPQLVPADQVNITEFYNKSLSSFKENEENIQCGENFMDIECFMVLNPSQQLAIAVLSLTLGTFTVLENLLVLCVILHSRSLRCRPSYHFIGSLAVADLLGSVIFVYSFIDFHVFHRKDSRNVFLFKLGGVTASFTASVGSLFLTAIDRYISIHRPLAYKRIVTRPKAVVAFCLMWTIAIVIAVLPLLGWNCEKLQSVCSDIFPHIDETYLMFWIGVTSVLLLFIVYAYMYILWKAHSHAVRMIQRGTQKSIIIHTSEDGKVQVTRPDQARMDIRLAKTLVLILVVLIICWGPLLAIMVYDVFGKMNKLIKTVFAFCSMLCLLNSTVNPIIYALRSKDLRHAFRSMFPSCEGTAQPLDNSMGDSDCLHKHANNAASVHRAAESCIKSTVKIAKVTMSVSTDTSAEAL
Excerpt: as §1, §2
(§3) Cells were seeded at a density of 10,000 cells per well in poly-L-lysine treated 96-well culture plates (BD Biosciences). The following day wells were incubated with 40 μl DMEM/F12 containing 0.5% (w/v) BSA and 0.5 mM 3-isobutyl-1-methylxanthine (Sigma-Aldrich) for 30 minutes prior to 15 min stimulation with 50 μM forskolin (Tocris Cookson) and varying concentrations of indicated compounds at 37° C., 5% CO2. Assays were stopped by removal of media and addition of 100% ice cold ethanol. Plates were then frozen for a minimum of two hours before complete evaporation of ethanol. The well contents were then reconstituted in 50 μl cAMP assay buffer (20 mM HEPES pH 7.5 and 5 mM EDTA). Half of the reconstituted sample was transferred to round bottom 96-well plates (Greiner Bio-One GmbH) with 50 μl 0.01% w/v PKA (cAMP dependent protein kinase (Sigma-Aldrich) in 1 mM Na citrate pH 6.5 with 2 mM dithiothreitol) and 25 μl [^3H]-cAMP (at 22 nM in cAMP assay buffer) (GE Healthcare, Life Sciences). This was allowed to equilibrate for 3-18 hours. Following this a charcoal slurry (5% (w/v) activated charcoal and 0.2% (w/v) BSA in cAMP assay buffer) was added to the samples and the plates centrifuged at 3000×g, 4° C. for 5 min. Radioactive counts within the supernatant were then determined as described for competition binding assays.
(§4) pIC50 values were determined from cAMP assays by fitting a sigmoidal concentration response curve using Prism 4.02.

The target of assay [2] is T1, human CB2 receptor. As to the kind of experiment: cell-based. Particulars: for Emax: CHO, read-out: cAMP Assay CB2 Receptor Emax; for IC50: read-out: cAMP Assay CB2 Receptor IC50.
Excerpt: as §1, §2, §3, §4

The subject of another assay is TNF-α. As to the kind of experiment: TNF-α production in brain following CHI (ELISA). The conditions noted are these: HU-914 5 mg/kg i.p. 1 h after CHI, sacrificed 4 hrs after CHI. It is filed as in vivo, mice. The procedure:
TNF-α activity can be induced by ischemic and traumatic brain injury starting at 1-2 h and reaching the peak at 4 h following CHI. (Shohami et al., 1997). The next step was to investigate the effect of HU-914 on TNF-α production after CHI. Three groups of mice (n=5-6) were subjected to CHI: • Group 1 (Control): Sham controls received anesthesia and skin incision only. • Group 2: Vehicle only (ethanol:cremophor:saline at ratio of 1:1:18), i.p. 1 h after CHI. • Group 3: HU-914, 5 mg/kg, dissolved in vehicle (1:1:18 ethanol:cremophor:saline), i.p. 1 h after CHI.
The animals were sacrificed 4 hrs after CHI by decapitation. Brains were rapidly removed and dissected into ipsilateral and contralateral cortical and hippocampal segments that were frozen in liquid nitrogen and kept at […]. […] Following sonication on ice for 45 s and centrifugation at 12,000 rpm for 20 min, protein concentrations in the supernatants were determined using the Bradford method (Bio-Rad Laboratories, Munich, Germany). Supernatants were analyzed by enzyme-linked immunosorbent assay (ELISA) for production of TNF-α, using cytokine specific kit from R&D Systems (Minneapolis, Minn.). […] TNF-α elevation was not detected in the right cortex or hippocampus (FIG. 8).
Background: An ELISA detects its analyte on a solid surface through an enzyme-linked reagent.

With `CCCCCCC(C)(C)c1cc(OC)c(C2=C[C@H]3CC[C@]2(CO)C3(C)C)c(OC)c1` [HU-910, (1S,4R)-(2-(2,6-dimethoxy-4-(2-methyloctan-2-yl)phenyl)-7,7-dimethylbicyclo[2.2.1]hept-2-en-1-yl)methanol], at human CB2 receptor [1], the Ki (usually the equilibrium dissociation constant of an inhibitor or competing ligand from its target) is 6 nM. In addition, the 50% inhibitory concentration (IC50) – broadly, the concentration needed to halve the response being measured – on human CB1 receptor is > 50000 nM. Further, on human CB2 receptor [2], the Emax (usually the maximal effect, on the per cent scale that the assay sets) was 105 ± 12% and the IC50 stood at 162 nM.

In turn, `CCCCCCC(C)(C)c1cc(OC)c(C2=C[C@H]3CC[C@]2(C(=O)O)C3(C)C)c(OC)c1` [HU-914, (1S,4R)-2-(2,6-dimethoxy-4-(2-methyloctan-2-yl)phenyl)-7,7-dimethylbicyclo[2.2.1]hept-2-ene-1-carboxylic acid] yielded a Ki on human CB2 receptor [1] of 1500 nM. At human CB1 receptor, the IC50 was > 50000 nM. On human CB2 receptor [2], the Emax was determined as 82 ± 7% and the IC50 was 2290 nM. Moreover, in the assay with TNF-α, the “TNF-α level, left cortex” value is reported as “did not affect the cytokine's level” and the “TNF-α production, hippocampus of the injured left hemisphere” value is “inhibited TNF-α production”.
